# Source: PubChem BioAssay AID270 (DTP/NCI, 2004)
# Several values for one entry are separate records, joined by “and”; a condition that tells them apart may be missing. Equal values may be shown once. Inconclusive results are not listed.
# System: BDF1 mice, s.c. Lewis lung carcinoma, T/C %
# Assay: NCI In Vivo Anticancer Drug Screen. Data for tumor model Lewis Lung Carcinoma (subcutaneous) in B6D2F1 (BDF1) mice
# How it was run: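 Antitumor effect in vivo is scored from survival or tumor burden, reported as treated relative to vehicle controls.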
# [1] = endpoint: median survival time, dose: 0.25 mg/kg/injection, schedule: Q01DX009 (ip), vehicle: Klucel (hydroxypropylcellulose) (HPC), higher = longer survival
# [2] = endpoint: median survival time, dose: 0.5 mg/kg/injection, schedule: Q01DX009 (ip), vehicle: Klucel (hydroxypropylcellulose) (HPC), higher = longer survival
# [3] = endpoint: median survival time, dose: 2.0 mg/kg/injection, schedule: Q01DX009 (ip), vehicle: Klucel (hydroxypropylcellulose) (HPC), higher = longer survival
# [4] = endpoint: median survival time, dose: 6.25 mg/kg/injection, schedule: Q01DX009 (ip), vehicle: Klucel (hydroxypropylcellulose) (HPC), higher = longer survival
# [5] = endpoint: median survival time, dose: 12.5 mg/kg/injection, schedule: Q01DX009 (ip), vehicle: Klucel (hydroxypropylcellulose) (HPC), higher = longer survival
structure (smiles),measurement,setting,value
COc1c(Cl)cc2c(c1OC)N(C)C1N3C(=O)C4(C)SSC3(C(=O)N4C)C(O)C21O (stereo not drawn),T/C,"endpoint: median survival time, dose: 0.12 mg/kg/injection, schedule: Q01DX009 (ip), vehicle: Klucel (hydroxypropylcellulose) (HPC), higher = longer survival",96 % of control
same,T/C,[1],94 % of control
same,T/C,[2],96 % of control
COC1=C(N2CC2)C(=O)C(OC)=C(N2CC2)C1=O,T/C,[1],97 % of control
same,T/C,[2],106 % of control
same,T/C,"endpoint: median survival time, dose: 1.0 mg/kg/injection, schedule: Q01DX009 (ip), vehicle: Klucel (hydroxypropylcellulose) (HPC), higher = longer survival",101 % of control
same,T/C,[3],111 % of control
same,T/C,"endpoint: median survival time, dose: 4.0 mg/kg/injection, schedule: Q01DX009 (ip), vehicle: Klucel (hydroxypropylcellulose) (HPC), higher = longer survival",124 % of control
Cc1cc(N(CCCl)CCCl)ccc1N=Nc1ccccc1C(=O)O,T/C,"endpoint: median survival time, dose: 2.0 mg/kg/injection, schedule: Q01DX009 (ip), vehicle: saline with Tween-80, higher = longer survival",101 % of control
same,T/C,"endpoint: median survival time, dose: 4.0 mg/kg/injection, schedule: Q01DX009 (ip), vehicle: saline with Tween-80, higher = longer survival",105 % of control and 111 % of control
same,T/C,"endpoint: median survival time, dose: 8.0 mg/kg/injection, schedule: Q01DX009 (ip), vehicle: saline with Tween-80, higher = longer survival",96 % of control and 104 % of control
same,T/C,"endpoint: median survival time, dose: 10.0 mg/kg/injection, schedule: Q01DX001 (ip), vehicle: saline with Tween-80, higher = longer survival",107 % of control
same,T/C,"endpoint: median survival time, dose: 20.0 mg/kg/injection, schedule: Q01DX001 (ip), vehicle: saline with Tween-80, higher = longer survival",92 % of control
same,T/C,"endpoint: median survival time, dose: 32.0 mg/kg/injection, schedule: Q04DX003 (ip), vehicle: saline with Tween-80, higher = longer survival",116 % of control
CS(C)=O,T/C,"endpoint: mean tumor weight, dose: 250.0 mg/kg/injection, schedule: Q01DX011 (ip), vehicle: carboxymethylcellulose (CMC), higher = larger tumour",68 % of control
same,T/C,"endpoint: mean tumor weight, dose: 500.0 mg/kg/injection, schedule: Q01DX011 (ip), vehicle: carboxymethylcellulose (CMC), higher = larger tumour",117 % of control
same,T/C,"endpoint: mean tumor weight, dose: 1000.0 mg/kg/injection, schedule: Q01DX011 (ip), vehicle: carboxymethylcellulose (CMC), higher = larger tumour",86 % of control
same,T/C,"endpoint: mean tumor weight, dose: 2000.0 mg/kg/injection, schedule: Q01DX011 (ip), vehicle: carboxymethylcellulose (CMC), higher = larger tumour",57 % of control
same,T/C,"endpoint: median survival time, dose: 3.0 grams/kg/injection, schedule: Q01DX009 (ip), vehicle: saline, higher = longer survival",101 % of control
same,T/C,"endpoint: median survival time, dose: 6.0 grams/kg/injection, schedule: Q01DX009 (ip), vehicle: saline, higher = longer survival",93 % of control
COc1cc2c[n+](C)c3c4cc5c(cc4ccc3c2cc1OC)OCO5,T/C,"endpoint: median survival time, dose: 5.0 mg/kg/injection, schedule: Q01DX009 (ip), vehicle: water, higher = longer survival",103 % of control
same,T/C,"endpoint: median survival time, dose: 10.0 mg/kg/injection, schedule: Q01DX009 (ip), vehicle: water, higher = longer survival",107 % of control
same,T/C,"endpoint: median survival time, dose: 20.0 mg/kg/injection, schedule: Q01DX009 (ip), vehicle: water, higher = longer survival",87 % of control
CCNCc1cc(Nc2cc(C)nc(/N=C(\N)Nc3ccc(Cl)c(Cl)c3)n2)ccc1OC,T/C,"endpoint: median survival time, dose: 0.8 mg/kg/injection, schedule: Q01DX009 (ip), vehicle: Klucel (hydroxypropylcellulose) (HPC), higher = longer survival",96 % of control
same,T/C,"endpoint: median survival time, dose: 1.56 mg/kg/injection, schedule: Q01DX009 (ip), vehicle: Klucel (hydroxypropylcellulose) (HPC), higher = longer survival",100 % of control
same,T/C,"endpoint: median survival time, dose: 3.12 mg/kg/injection, schedule: Q01DX009 (ip), vehicle: Klucel (hydroxypropylcellulose) (HPC), higher = longer survival",96 % of control
C=C1C(=O)OC2CC(C)C3C4OC4C(O)C3(C)C(O)C12 (stereo not drawn),T/C,"endpoint: median survival time, dose: 9.38 mg/kg/injection, schedule: Q01DX009 (ip), vehicle: saline with Tween-80, higher = longer survival",99 % of control
same,T/C,"endpoint: median survival time, dose: 18.75 mg/kg/injection, schedule: Q01DX009 (ip), vehicle: saline with Tween-80, higher = longer survival",96 % of control
same,T/C,"endpoint: median survival time, dose: 37.5 mg/kg/injection, schedule: Q01DX009 (ip), vehicle: saline with Tween-80, higher = longer survival",101 % of control
Nc1nc(-c2ccccc2N=NN2CCCC2)nc2ccccc12,T/C,[4],105 % of control
same,T/C,[5],97 % of control
same,T/C,"endpoint: median survival time, dose: 25.0 mg/kg/injection, schedule: Q01DX009 (ip), vehicle: Klucel (hydroxypropylcellulose) (HPC), higher = longer survival",103 % of control
CC(C)NCC(=O)c1ccc(O)c(O)c1,T/C,"endpoint: median survival time, dose: 5.0 mg/kg/injection, schedule: Q01DX009 (ip), vehicle: saline, higher = longer survival",107 % of control
same,T/C,"endpoint: median survival time, dose: 10.0 mg/kg/injection, schedule: Q01DX009 (ip), vehicle: saline, higher = longer survival",114 % of control
same,T/C,"endpoint: median survival time, dose: 20.0 mg/kg/injection, schedule: Q01DX009 (ip), vehicle: saline, higher = longer survival",114 % of control
same,T/C,"endpoint: median survival time, dose: 40.0 mg/kg/injection, schedule: Q01DX009 (ip), vehicle: saline, higher = longer survival",111 % of control
CO[C@@H]1[C@@H](OC2OC(C)C(OC3CC(C)(O)C(OC(=O)CC(C)C)C(C)O3)C(N(C)C)C2O)[C@@H](CC=O)C[C@@H](C)C(=O)/C=C/C2O[C@H]2C[C@@H](C)OC(=O)C[C@H]1OC(C)=O (stereo partly drawn),T/C,"endpoint: mean tumor weight, dose: 37.5 mg/kg/injection, schedule: Q01DX011 (ip), vehicle: other, higher = larger tumour",98 % of control
same,T/C,"endpoint: mean tumor weight, dose: 37.5 mg/kg/injection, schedule: Q01DX011 (ip), vehicle: saline, higher = larger tumour",83 % of control
same,T/C,"endpoint: mean tumor weight, dose: 75.0 mg/kg/injection, schedule: Q01DX011 (ip), vehicle: other, higher = larger tumour",76 % of control
same,T/C,"endpoint: mean tumor weight, dose: 150.0 mg/kg/injection, schedule: Q01DX011 (ip), vehicle: other, higher = larger tumour",47 % of control
same,T/C,"endpoint: mean tumor weight, dose: 150.0 mg/kg/injection, schedule: Q01DX011 (ip), vehicle: saline, higher = larger tumour",63 % of control and 81 % of control
same,T/C,"endpoint: mean tumor weight, dose: 300.0 mg/kg/injection, schedule: Q01DX011 (ip), vehicle: other, higher = larger tumour",15 % of control
same,T/C,"endpoint: mean tumor weight, dose: 300.0 mg/kg/injection, schedule: Q01DX011 (ip), vehicle: saline, higher = larger tumour",44 % of control and 48 % of control
Nc1ncnc2c1ncn2C1OC(CO)CC1O (stereo not drawn),T/C,"endpoint: mean tumor weight, dose: 37.0 mg/kg/injection, schedule: Q01DX011 (ip), vehicle: saline, higher = larger tumour",101 % of control
same,T/C,"endpoint: mean tumor weight, dose: 75.0 mg/kg/injection, schedule: Q01DX011 (ip), vehicle: saline, higher = larger tumour",86 % of control
O=[N+]([O-])c1ccc(/C=N/c2ncc(Br)s2)o1,T/C,[4],89 % of control
same,T/C,[5],109 % of control
CCCC1CCC(=C2C(=O)CCC2=O)O1 (stereo not drawn),T/C,"endpoint: median survival time, dose: 3.13 mg/kg/injection, schedule: Q01DX009 (ip), vehicle: saline, higher = longer survival",102 % of control
same,T/C,"endpoint: median survival time, dose: 6.25 mg/kg/injection, schedule: Q01DX009 (ip), vehicle: saline, higher = longer survival",111 % of control
same,T/C,"endpoint: median survival time, dose: 12.5 mg/kg/injection, schedule: Q01DX009 (ip), vehicle: saline, higher = longer survival",105 % of control
same,T/C,"endpoint: median survival time, dose: 25.0 mg/kg/injection, schedule: Q01DX009 (ip), vehicle: saline, higher = longer survival",101 % of control
CC(=O)c1ccc(-c2ccccc2)cc1,T/C,"endpoint: mean tumor weight, dose: 125.0 mg/kg/injection, schedule: Q01DX011 (ip), vehicle: other, higher = larger tumour",57 % of control
same,T/C,"endpoint: mean tumor weight, dose: 222.0 mg/kg/injection, schedule: Q01DX011 (ip), vehicle: other, higher = larger tumour",174 % of control
same,T/C,"endpoint: mean tumor weight, dose: 250.0 mg/kg/injection, schedule: Q01DX011 (ip), vehicle: other, higher = larger tumour",73 % of control
same,T/C,"endpoint: mean tumor weight, dose: 333.0 mg/kg/injection, schedule: Q01DX011 (ip), vehicle: other, higher = larger tumour",118 % of control
same,T/C,"endpoint: mean tumor weight, dose: 500.0 mg/kg/injection, schedule: Q01DX011 (ip), vehicle: other, higher = larger tumour",86 % of control
CC(C)NCC(O)COc1cccc2ccccc12 (stereo not drawn),T/C,[3],95 % of control and 110 % of control
same,T/C,"endpoint: median survival time, dose: 2.0 mg/kg/injection, schedule: Q02DX009 (ip), vehicle: Klucel (hydroxypropylcellulose) (HPC), higher = longer survival",123 % of control
same,T/C,"endpoint: median survival time, dose: 4.0 mg/kg/injection, schedule: Q02DX009 (ip), vehicle: Klucel (hydroxypropylcellulose) (HPC), higher = longer survival",95 % of control and 107 % of control
same,T/C,"endpoint: median survival time, dose: 8.0 mg/kg/injection, schedule: Q02DX009 (ip), vehicle: Klucel (hydroxypropylcellulose) (HPC), higher = longer survival",100 % of control and 108 % of control
same,T/C,"endpoint: median survival time, dose: 16.0 mg/kg/injection, schedule: Q02DX009 (ip), vehicle: Klucel (hydroxypropylcellulose) (HPC), higher = longer survival",92 % of control and 111 % of control
same,T/C,"endpoint: median survival time, dose: 32.0 mg/kg/injection, schedule: Q02DX009 (ip), vehicle: Klucel (hydroxypropylcellulose) (HPC), higher = longer survival",90 % of control and 105 % of control
same,T/C,"endpoint: median survival time, dose: 64.0 mg/kg/injection, schedule: Q02DX009 (ip), vehicle: Klucel (hydroxypropylcellulose) (HPC), higher = longer survival",101 % of control and 118 % of control
C/C=C(\C)C(=O)O[C@@H]1c2cc3c(cc2-c2c(cc(OC)c(OC)c2OC)[C@@H]2C(=O)OC[C@@H]12)OCO3,T/C,"endpoint: median survival time, dose: 1.25 mg/kg/injection, schedule: Q01DX009 (ip), vehicle: Klucel (hydroxypropylcellulose) (HPC), higher = longer survival",99 % of control
same,T/C,"endpoint: median survival time, dose: 2.5 mg/kg/injection, schedule: Q01DX009 (ip), vehicle: Klucel (hydroxypropylcellulose) (HPC), higher = longer survival",110 % of control
same,T/C,"endpoint: median survival time, dose: 5.0 mg/kg/injection, schedule: Q01DX009 (ip), vehicle: Klucel (hydroxypropylcellulose) (HPC), higher = longer survival",101 % of control
CC(C)C1(C(=O)NNC(=O)CCCc2ccc(N(CCCl)CCCl)cc2)OC2(O)CCCCCN2C1=O (stereo not drawn),T/C,"endpoint: median survival time, dose: 3.12 mg/kg/injection, schedule: Q04DX003 (ip), vehicle: DMSO, higher = longer survival",111 % of control
same,T/C,"endpoint: median survival time, dose: 6.25 mg/kg/injection, schedule: Q04DX003 (ip), vehicle: DMSO, higher = longer survival",116 % of control
same,T/C,"endpoint: median survival time, dose: 12.5 mg/kg/injection, schedule: Q04DX003 (ip), vehicle: DMSO, higher = longer survival",102 % of control
[O-][n+]1c(CCl)nc2cccc3c2c1-c1ccccc1-3,T/C,"endpoint: median survival time, dose: 25.0 mg/kg/injection, schedule: Q01DX009 (ip), vehicle: saline with Tween-80, higher = longer survival",106 % of control and 111 % of control
same,T/C,"endpoint: median survival time, dose: 50.0 mg/kg/injection, schedule: Q01DX009 (ip), vehicle: saline with Tween-80, higher = longer survival",112 % of control and 118 % of control
same,T/C,"endpoint: median survival time, dose: 100.0 mg/kg/injection, schedule: Q01DX009 (ip), vehicle: saline with Tween-80, higher = longer survival",94 % of control
CN1CC(=O)NC1=O,T/C,"endpoint: mean tumor weight, dose: 2000.0 mg/kg/injection, schedule: Q01DX011 (ip), vehicle: saline, higher = larger tumour",99 % of control and 124 % of control
